Test results: PMC7822874, “Chemoprotective antimalarials identified through quantitative high-throughput screening of Plasmodium blood and liver stage parasites” (Scientific Reports, 2021)
Read-outs that look alike come from different tables or passages of the source.

What was measured:
[1] = test system: Plasmodium falciparum Dd2 asexual blood stage parasites; assay: microbe, parasite or virus in culture; parameters: species or system Plasmodium falciparum Dd2 in human erythrocytes; single determination (one 11-point concentration-response curve); conditions: Plasmodium falciparum, DD2, Erythrocyte, 72 h; read-out: AC50
[2] = test system: P. berghei-ANKA-GFP-LucCON liver stage parasites in HepG2-A16-CD81EGFP cells; assay: P. berghei liver stage Pb-Luc assay, Method 1 (UCSD, 1536-well); format: cell-based, Plasmodium berghei; conditions: for activity at 1 µM / activity at 3 µM: 48 h, average of 2 wells on a 1536 well plate; for activity at 1 µM: 1 uM (compounds provided at 10 mM); for activity at 3 µM: 3 uM (compounds provided at 10 mM); for Max Resp (signal direction of the dose response): Decrease = decreasing P. berghei viability with dose, Increase = increasing signal, Inactive = no dose response
[3] = test system: luciferase-expressing P. berghei liver stage parasites in HepG2 cells; assay: Inhibition of liver-stage development assay (ILSDA), Method 2 (WRAIR, 96-well); format: cell-based, Plasmodium berghei; conditions: for Max Resp (signal direction of the dose response): Decrease = decreasing P. berghei viability with dose, Increase = increasing signal, Inactive = no dose response; for Activity direction (Decrease / Inactive): P. berghei liver stage
[4] = Plasmodium berghei, HepG2, Method 2, Hill fit, 50% of maximum activity response, read-out: AC50
[5] = Plasmodium berghei, HepG2, Method 2, log10 of molar AC50 from Hill fit, read-out: Log AC50 (converted)
[6] = Plasmodium berghei, Method 1, Hill fit, 50% of maximum activity response, read-out: AC50
[7] = Plasmodium berghei, Method 1, log10 of molar AC50 from Hill fit, read-out: Log AC50 (converted)

| SMILES | AC50 [1] | Max Resp (signal direction of the dose response) ([3]; Method 2) | AC50 [3, 4] | AC50 [3, 5] | Max Resp (signal direction of the dose response) ([2]; Method 1) | AC50 [2, 6] | AC50 [2, 7] | further results |
| --- | --- | --- | --- | --- | --- | --- | --- | --- |
| Cc1ccc(-c2nn3c(=O)c4c([nH]c3c2C)CCCC4)cc1 [MLS000029798-01] | 2990 nM | Decrease | 282 nM | 282 nM | – | – | – | activity at 1 µM ([2]; Plasmodium berghei, column 11, read-out: Pb-Luc (P. berghei liver stage), % of control, lower concentration, first repeat): 15%; activity at 1 µM ([2]; Plasmodium berghei, column 12, read-out: Pb-Luc (P. berghei liver stage), % of control, lower concentration, second repeat): 11%; activity at 3 µM ([2]; Plasmodium berghei, column 8, read-out: Pb-Luc (P. berghei liver stage), % of control, higher concentration, first repeat): 6.61%; activity at 3 µM ([2]; Plasmodium berghei, column 9, read-out: Pb-Luc (P. berghei liver stage), % of control, higher concentration, second repeat): 8% |
| Cc1ccc2[nH]c(-c3ccccc3)cc(=O)c2c1 [MLS000112473-01] | 4730 nM | Decrease | 5620 nM | 5620 nM | – | – | – | – |
| CCCCCCCc1c(C)[nH]c(N2CCOCC2)nc1=O [MLS000531187-01] | 5310 nM | Decrease | 5620 nM | 5620 nM | – | – | – | – |
| CC1CCc2cc(F)ccc2N1C(=O)CSc1nnc2c(n1)[nH]c1ccccc12 (centres unmarked) [MLS000557140-01] | 7500 nM | Decrease | 5620 nM | 5620 nM | – | – | – | – |
| N#C/C(=C\c1ccc(Sc2ccc(Cl)cc2)o1)c1nc2ccccc2[nH]1 [MLS000579372-01] | 2990 nM | Decrease | 501 nM | 501 nM | – | – | – | – |
| COc1ccc2nc(C)cc(Nc3ccc(Cl)c(Cl)c3)c2c1 [NCGC00098192-01] | 2660 nM | Decrease | 398 nM | 398 nM | Inactive | – | – | – |
| COc1cc(/C=C(\C#N)c2nc3ccccc3[nH]2)ccc1OCc1ccc(F)cc1 [NCGC00102606-01] | 5310 nM | Decrease | 794 nM | 794 nM | Decrease | 1410 nM | 1410 nM | – |
| Cc1cccc(N2CCN(c3nc4ccccc4c4nnc(C)n34)CC2)c1C [NCGC00107423-01] | 5310 nM | Decrease | 89 nM | 89.1 nM | Inactive | – | – | – |
| COc1cccc(NC(=O)c2cccc3c(=O)c4c([nH]c23)CCCC4)c1 [NCGC00119838-01] | 2990 nM | Increase | – | – | Inactive | – | – | – |
| Cc1cccc(N(C)c2nc3ccccc3c3nnc(C)n23)c1 [NCGC00126108-01] | 1060 nM | Decrease | – | – | Decrease | 316 nM | 316 nM | AC50 ([3]; Method 2, Hill fit, 50% of maximum activity response, read-out: AC50): 447 nM; Log AC50 (M) ([3]; Method 2, log10 of molar AC50 from Hill fit): -6.350 M |
| CCOC(=O)c1[nH]c(C)c(CCC(=O)N2CCN(c3cccc(C)c3C)CC2)c1C [NCGC00134568-01] | 1330 nM | Decrease | 562 nM | 562 nM | Inactive | – | – | – |
| CCOC(=O)c1[nH]c(C)c(CCC(=O)N2CCN(c3cc(Cl)ccc3C)CC2)c1C [NCGC00134588-01] | 1190 nM | Decrease | 708 nM | 708 nM | Inactive | – | – | – |
| COc1ccc2nc(C[C@@H]3C[C@@H](C(C)C)[C@H](CNCc4ccccc4O)C=C3C)[nH]c2n1 [NCGC00391280-01] | 243 nM | Inactive | – | – | – | 1580 nM | 1580 nM | – |
| COc1ccc(-n2nc(C)c([C@@H]3C=C[C@@H](NCc4ccc(N(C)C)cc4)C3)c2C)cc1 [NCGC00394616-01] | 4330 nM | Decrease | 2820 nM | 2820 nM | Decrease | 1410 nM | 1410 nM | AC50 ([2]; Method 1, Hill fit, 50% of maximum activity response, read-out: AC50): 1580 nM; Log AC50 (M) ([2]; Method 1, log10 of molar AC50 from Hill fit): -5.800 M |
| CCC(CC)c1cc([C@H]2CN3CC[C@H]2C[C@@H]3CNC(C)=O)nc(-c2ccncc2)n1 [NCGC00394634-01] | 15300 nM | Decrease | 355 nM | 355 nM | Decrease | – | – | – |
| CCC(CC)c1cc([C@H]2CN3CC[C@H]2C[C@@H]3CNC(=O)Cc2cccs2)nc(-c2ccncc2)n1 [NCGC00400345-01] | 2990 nM | Decrease | 251 nM | 251 nM | Decrease | 5620 nM | 5620 nM | – |
| COc1ccc(-c2ccc3ncc(Nc4ccncc4)n3n2)cc1OC [NCGC00412536-01] | 4850 nM | Inactive | – | – | – | 2240 nM | 2240 nM | – |
| N#Cc1cccc(CN2CC(CNc3ccccc3)C3(C2)CN(c2ccccc2)C3)c1 (centres unmarked) [NCGC00415808-01] | – | – | – | – | – | – | – | Activity direction (Decrease / Inactive) ([3]; Method 2, dose response): Decrease; AC50 ([3]; Plasmodium berghei, HepG2, P. berghei liver stage, Method 2, dose response, read-out: AC50): 2240 nM; AC50 ([3]; Plasmodium berghei, HepG2, P. berghei liver stage, Method 2, dose response, read-out: Log AC50 (converted)): 2240 nM |
| CC(C)c1ccc(CN2CC(CNc3cccnc3)C3(C2)CN(c2ccccc2)C3)cc1 (centres unmarked) [NCGC00415809-01] | 4850 nM | – | – | – | – | – | – | Activity direction (Decrease / Inactive) ([3]; Method 2, dose response): Inactive |
